Measured values reported in PubChem BioAssay (NCI).
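Five compound concentrations were applied to cells in 96-well plates for 48 hours; endpoints were derived by simple linear interpolation of the resulting dose-response curve. GI50 is the concentration that inhibits growth by half. TGI marks complete inhibition of growth.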

Tests used:
Experiment in all cases: DTP human tumour cell line panel, 48 h
KM12 colon = tested on: KM12 colon
HCT-15 colon = tested on: HCT-15 colon
SN12C renal = tested on: SN12C renal
HCT-116 colon = tested on: HCT-116 colon
SW-620 colon = tested on: SW-620 colon
ACHN renal = tested on: ACHN renal
HT29 colon = tested on: HT29 colon
RXF 393 renal = tested on: RXF 393 renal
SNB-75 CNS = tested on: SNB-75 CNS
NCI/ADR-RES ovarian = tested on: NCI/ADR-RES ovarian
SF-295 CNS = tested on: SF-295 CNS
NCI-H23 lung = tested on: NCI-H23 lung
COLO 205 colon = tested on: COLO 205 colon
NCI-H522 lung = tested on: NCI-H522 lung
U251 CNS = tested on: U251 CNS
PC-3 prostate = tested on: PC-3 prostate
MCF7 breast = tested on: MCF7 breast
IGROV1 ovarian = tested on: IGROV1 ovarian
MDA-MB-435 = tested on: MDA-MB-435
SK-OV-3 ovarian = tested on: SK-OV-3 ovarian
CAKI-1 renal = tested on: CAKI-1 renal
DU-145 prostate = tested on: DU-145 prostate
UACC-62 melanoma = tested on: UACC-62 melanoma
HOP-62 NSCLC = tested on: HOP-62 NSCLC
LOX IMVI melanoma = tested on: LOX IMVI melanoma
UACC-257 melanoma = tested on: UACC-257 melanoma
EKVX NSCLC = tested on: EKVX NSCLC

For `NC(N)=Nc1ccc(Oc2cccc(NC(N)=Nc3ccc(Cl)c(C(F)(F)F)c3)c2)cn1`, the GI50 (KM12 colon) was 1470 nM, the TGI (KM12 colon) was 2900 nM and the GI50 (HCT-15 colon) was 19600 nM. For the same molecule, the TGI (HCT-15 colon) was 67600 nM, the GI50 (SN12C renal) was 2200 nM and the TGI (SN12C renal) was 8970 nM. For the same molecule, the GI50 (HCT-116 colon) was 1730 nM, the TGI (HCT-116 colon) was 4860 nM and the GI50 (SW-620 colon) was 1940 nM. It also gave a TGI (SW-620 colon) of 4830 nM, a GI50 (ACHN renal) of 13300 nM and a TGI (ACHN renal) of 29400 nM. The GI50 (HT29 colon) was 1910 nM, the TGI (HT29 colon) was 5640 nM and the GI50 (RXF 393 renal) was 1830 nM. It also gave a TGI (RXF 393 renal) of 4780 nM, a GI50 (SNB-75 CNS) of 515 nM and a TGI (SNB-75 CNS) of 2920 nM. For the same molecule, the GI50 (NCI/ADR-RES ovarian) was 40500 nM, the TGI (NCI/ADR-RES ovarian) was over 100000 nM and the GI50 (SF-295 CNS) was 2080 nM. For the same molecule, the TGI (SF-295 CNS) was 7970 nM, the GI50 (NCI-H23 lung) was 1730 nM and the TGI (NCI-H23 lung) was 4150 nM. For the same molecule, the GI50 (COLO 205 colon) was 1430 nM, the TGI (COLO 205 colon) was 3080 nM and the GI50 (NCI-H522 lung) was 2190 nM. It also gave a TGI (NCI-H522 lung) of 5810 nM, a GI50 (U251 CNS) of 1260 nM and a TGI (U251 CNS) of 2830 nM. For the same molecule, the GI50 (PC-3 prostate) was 1070 nM, the TGI (PC-3 prostate) was 2620 nM and the GI50 (MCF7 breast) was 1240 nM. For the same molecule, the TGI (MCF7 breast) was 3010 nM, the GI50 (IGROV1 ovarian) was 1070 nM and the TGI (IGROV1 ovarian) was 2510 nM. For the same molecule, the GI50 (MDA-MB-435) was 1660 nM, the TGI (MDA-MB-435) was 3660 nM and the GI50 (SK-OV-3 ovarian) was 2700 nM. The TGI (SK-OV-3 ovarian) was 10400 nM, the GI50 (CAKI-1 renal) was 3290 nM and the TGI (CAKI-1 renal) was 17400 nM. For the same molecule, the GI50 (DU-145 prostate) was 2220 nM, the TGI (DU-145 prostate) was 5270 nM and the GI50 (UACC-62 melanoma) was 2380 nM. It also gave a TGI (UACC-62 melanoma) of 12700 nM, a GI50 (HOP-62 NSCLC) of 2050 nM and a TGI (HOP-62 NSCLC) of 5760 nM. The GI50 (LOX IMVI melanoma) was 1400 nM, the TGI (LOX IMVI melanoma) was 2740 nM and the GI50 (UACC-257 melanoma) was 2870 nM. It also gave a TGI (UACC-257 melanoma) of 12800 nM, a GI50 (EKVX NSCLC) of 2770 nM and a TGI (EKVX NSCLC) of 13500 nM.
